Test results taken from article PMC3266282, “Role of AMP-Activated Protein Kinase on Steroid Hormone Biosynthesis in Adrenal NCI-H295R Cells” (PLoS ONE, 2012).

Target: T1, CYP17A1 (17α-hydroxylase/17,20 lyase) (Homo sapiens, UniProt P05093)
T1 construct: human recombinant CYP17A1 co-expressed with POR in yeast microsomes; with human P450 oxidoreductase (POR)
T1 sequence (P05093 1-508): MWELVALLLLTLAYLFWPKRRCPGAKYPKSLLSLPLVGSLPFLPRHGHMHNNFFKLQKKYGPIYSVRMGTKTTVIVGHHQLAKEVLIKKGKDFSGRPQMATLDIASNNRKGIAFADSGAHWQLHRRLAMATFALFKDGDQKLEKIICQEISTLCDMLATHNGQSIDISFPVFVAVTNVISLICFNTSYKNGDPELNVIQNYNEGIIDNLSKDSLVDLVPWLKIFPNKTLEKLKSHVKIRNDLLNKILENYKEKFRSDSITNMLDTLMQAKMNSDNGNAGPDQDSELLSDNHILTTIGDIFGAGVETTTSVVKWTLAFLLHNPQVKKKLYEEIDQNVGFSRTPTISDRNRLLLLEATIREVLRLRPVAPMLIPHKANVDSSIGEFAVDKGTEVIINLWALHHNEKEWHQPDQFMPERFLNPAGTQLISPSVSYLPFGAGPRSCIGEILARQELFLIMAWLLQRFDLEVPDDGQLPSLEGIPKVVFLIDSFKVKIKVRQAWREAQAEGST
T1 sequence (P16435 2-677 partner): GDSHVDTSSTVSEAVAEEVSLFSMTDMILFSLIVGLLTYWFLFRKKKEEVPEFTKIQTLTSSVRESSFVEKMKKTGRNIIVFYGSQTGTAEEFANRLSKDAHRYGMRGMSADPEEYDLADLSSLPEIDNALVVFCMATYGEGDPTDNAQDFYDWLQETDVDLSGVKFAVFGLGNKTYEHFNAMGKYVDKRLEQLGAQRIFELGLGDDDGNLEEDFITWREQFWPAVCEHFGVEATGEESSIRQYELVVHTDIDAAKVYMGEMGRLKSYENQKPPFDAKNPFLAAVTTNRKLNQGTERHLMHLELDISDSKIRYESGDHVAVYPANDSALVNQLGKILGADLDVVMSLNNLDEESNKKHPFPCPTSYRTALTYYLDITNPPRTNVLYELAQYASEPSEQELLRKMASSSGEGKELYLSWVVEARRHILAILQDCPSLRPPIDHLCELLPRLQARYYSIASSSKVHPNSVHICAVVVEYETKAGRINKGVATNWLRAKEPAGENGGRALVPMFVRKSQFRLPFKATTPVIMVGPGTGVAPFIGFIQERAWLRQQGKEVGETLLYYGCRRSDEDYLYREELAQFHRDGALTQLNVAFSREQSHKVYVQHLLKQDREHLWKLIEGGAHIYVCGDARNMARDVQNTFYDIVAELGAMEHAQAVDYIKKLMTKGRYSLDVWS
Test: […]α-hydroxylase activity in yeast microsomes with radiolabelled steroid substrate, TLC readout, dose-response
Type: biochemical

c1cc(-c2cnn3cc(-c4ccc(OCCN5CCCCC5)cc4)cnc23)ccn1 [compound C]
IC50: 9.6 nM
